Measured values: patent US20090143392A1, “Methods of Treating Obesity and Metabolic Disorders” (ELBION GMBH, priority 2007, published 2009)

Key:
[1] = molecular target: PDE10 from guinea pig striatum (Cavia porcellus, UniProt A0A286XN47); assay: Inhibition of PDE10 from guinea pig striatum; assay type: biochemical; conditions: 0.1 μM [3H]-cAMP, 37° C., 30 minutes
Procedure: (§1) Phosphodiesterase isoenzyme 10 (PDE10) activity was determined in preparations of rat, pig and guinea pig striatum respectively. Striatum from male Wistar rats (180-200 g), male hybrid pigs (150 kg) and male guinea pigs (CRL (HA), 500 g) respectively were collected and frozen at −70° C.
(§2) For the enzymatic testing of PDE10 activity 0.5 g of the isolated and frozen striatum was homogenised in 10 ml 50 mM Tris/Mg-buffer at 4° C. and centrifuged for one hour at 100000 g.
(§3) Nonspecific activity was tested without the enzyme. […] For determination of IC50 values the Hill-plot, 2-parameter-model, was used.

PDE10 from rat striatum = molecular target: T1, PDE10 from rat striatum (Rattus norvegicus, UniProt Q9QYJ6); assay: Inhibition of PDE10 from rat striatum; assay type: biochemical; conditions: 0.1 μM [3H]-cAMP, 37° C., 30 minutes
T1 construct: 0.5 g of the isolated and frozen striatum was homogenised; from tissue; host or cells: rat striatum, ion-exchange FPLC fractions with PDE10 activity
T1 sequence (Q9QYJ6 1-794): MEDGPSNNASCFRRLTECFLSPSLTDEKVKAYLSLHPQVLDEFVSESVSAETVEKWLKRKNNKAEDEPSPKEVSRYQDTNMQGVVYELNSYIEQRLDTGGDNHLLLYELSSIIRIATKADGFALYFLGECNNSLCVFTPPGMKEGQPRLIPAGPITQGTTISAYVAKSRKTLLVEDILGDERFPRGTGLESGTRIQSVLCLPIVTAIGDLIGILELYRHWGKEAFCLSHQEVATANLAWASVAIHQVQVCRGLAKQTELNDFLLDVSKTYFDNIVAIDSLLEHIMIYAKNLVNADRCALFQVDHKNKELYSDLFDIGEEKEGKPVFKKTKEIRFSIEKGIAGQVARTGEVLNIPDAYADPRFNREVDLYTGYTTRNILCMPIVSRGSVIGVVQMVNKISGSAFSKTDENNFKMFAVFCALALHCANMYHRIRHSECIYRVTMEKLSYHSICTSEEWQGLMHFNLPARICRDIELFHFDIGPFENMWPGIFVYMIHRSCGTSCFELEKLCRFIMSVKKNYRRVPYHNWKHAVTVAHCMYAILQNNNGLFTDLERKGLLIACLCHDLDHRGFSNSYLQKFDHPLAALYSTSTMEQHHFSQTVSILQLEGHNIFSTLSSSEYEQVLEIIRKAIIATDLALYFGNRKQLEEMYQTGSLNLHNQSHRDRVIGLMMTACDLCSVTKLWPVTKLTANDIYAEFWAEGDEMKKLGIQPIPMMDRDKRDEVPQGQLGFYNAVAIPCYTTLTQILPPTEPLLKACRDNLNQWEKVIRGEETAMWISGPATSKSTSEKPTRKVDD
Procedure: as §1, §2, §3

PDE10 from pig striatum = molecular target: T2, PDE10 from pig striatum (Sus scrofa, UniProt A0A287B941); assay: Inhibition of PDE10 from pig striatum; assay type: biochemical; conditions: 0.1 μM [3H]-cAMP, 37° C., 30 minutes
T2 construct: "Striatum from male hybrid pigs (150 kg)"
Procedure: Phosphodiesterase isoenzyme 10 (PDE10) activity was determined in preparations of human recombinant PDE10A and PDE10 from pig striatum, respectively.
Striatum from male hybrid pigs (150 kg) were collected and frozen at −70° C.
At the day of preparation 0.5 g striatum was homogenised in 10 ml 50 mM Tris/Mg-buffer at 4° C. and centrifuged for one hour at 100000 g.
as §3, §1, §2

MK-801-induced psychosis = assay: MK-801-induced psychosis: hyperactivity and stereotyped sniffing; assay type: in vivo; conditions: female Wistar rats, MK-801 0.1 mg/kg i.p. 10 min before test, compound 30 min prior, recorded 1 h; for dose that significantly reversed MK-801-induced stereotyped sniffing / dose that significantly reversed MK-801-induced hyperactivity: p.o.
Procedure: Female Wistar rats (Crl: (WI) BR, Charles River, Sulzfeld, Germany) weighing 150 to 180 g were used for the MK-801-induced psychosis. Animals were housed under standard conditions in groups of five on a 12 h light/dark cycle (light on at 0600 h) with ad libitum access to food (Pellets, ssniff M/R 15, Spezialdiät GmbH, Soest/Westfalen) and water.
MK-801 (dizocilpine, MW 337.37) was obtained by Tocris, distributed by Biotrend Chemikalien GmbH, Köln, Germany.
Hydroxyethylcellulose was solved in distilled water.
MK-801 was solved in saline so that an administration volume of 0.5 ml/100 g was reached. The suspensions and solution were placed on a magnetic stirrer before and during dosing procedures.
The behaviour induced by the NMDA antagonist MK-801 is generally accepted as a rat model of psychosis. MK-801 induces stereotyped sniffing, hyperactivity and ataxia in rats after intraperitoneal administration.
Locomotor activity of the rats was recorded by the MotiTest Apparatus (TSE, Bad Homburg, Germany). The test area consisted of a squared arena (45×45 cm) with protective plexiglass walls (20 cm of height) where rats could freely move. Horizontal movements were recorded by 32 infrared photocells arranged along the bottom of each wall of the arena. The activity [sec] was measured by the computer program “ActiMot” (TSE, Bad Homburg, Germany).
Stereotyped sniffing was scored by the experimenter every five minutes for one hour (12 intervals) according to the method described by Andine et al. (1999). The scores of the 12 intervals were summed up at the end of the recording time.
The day of experiment the female rats were placed in the laboratory and received the test compound or vehicle at the appropriate time prior to test. MK-801 0.1 mg/kg was intraperitoneally administered 10 minutes prior to test.
At the beginning of the test the rats were placed in the centre of the squared arena of the MotiTest apparatus. Behaviour of the rats was recorded for one hour. After each run animals were removed and the boxes thoroughly cleaned and dried.
Results were analysed by one way analysis of variance (ANOVA). Tukey test was used for individual comparison. P<0.05 was regarded as significant.

[2] = test system: apomorphine-induced stereotypies; conditions: rats; cited from earlier work
[3] = test system: dopamine concentration in rat brain; conditions: cited from earlier work
[4] = test system: haloperidol-induced catalepsy; conditions: rats; cited from earlier work

Sequence of PDE10 from guinea pig striatum (A0A286XN47 1-773): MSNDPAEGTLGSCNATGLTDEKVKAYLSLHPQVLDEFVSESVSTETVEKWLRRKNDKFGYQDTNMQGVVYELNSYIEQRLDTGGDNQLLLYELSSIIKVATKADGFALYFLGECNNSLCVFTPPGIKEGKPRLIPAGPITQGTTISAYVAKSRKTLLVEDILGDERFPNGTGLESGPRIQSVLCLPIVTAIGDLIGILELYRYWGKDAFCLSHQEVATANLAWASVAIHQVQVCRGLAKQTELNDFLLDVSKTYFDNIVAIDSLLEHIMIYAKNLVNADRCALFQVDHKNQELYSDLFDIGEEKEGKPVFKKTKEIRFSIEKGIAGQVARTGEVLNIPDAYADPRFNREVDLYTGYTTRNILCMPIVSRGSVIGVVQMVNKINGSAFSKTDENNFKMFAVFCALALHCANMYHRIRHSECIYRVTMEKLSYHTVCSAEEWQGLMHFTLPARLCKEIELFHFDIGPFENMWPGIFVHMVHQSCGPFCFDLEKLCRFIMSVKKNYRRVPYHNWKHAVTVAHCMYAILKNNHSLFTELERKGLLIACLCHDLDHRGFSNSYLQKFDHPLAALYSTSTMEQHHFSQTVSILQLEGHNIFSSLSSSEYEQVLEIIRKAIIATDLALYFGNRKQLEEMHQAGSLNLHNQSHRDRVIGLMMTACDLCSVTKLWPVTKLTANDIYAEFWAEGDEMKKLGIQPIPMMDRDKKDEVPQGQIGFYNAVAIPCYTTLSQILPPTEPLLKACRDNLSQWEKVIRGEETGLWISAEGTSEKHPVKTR

Row | Compound | IC50 [1] [nM] | IC50 (PDE10 from rat striatum) [nM] | IC50 (PDE10 from pig striatum) [nM] | dose that significantly reversed MK-801-induced stereotyped sniffing (MK-801-induced psychosis) [mg/kg] | dose that significantly reversed MK-801-induced hyperactivity (MK-801-induced psychosis) [mg/kg] | other results
1 | 4-cyano-8-methoxy-3-methyl-1-propyl-imidazo[1,5-a]pyrido[3,2-e]pyrazine [Example 29a] | 18 | – | – | ≥ 5 | – | –
2 | COc1ccc(Cc2nccc3cc(OC)c(OC)cc23)cc1OC [Papaverine] | – | – | – | – | – | effect on apomorphine-induced stereotypies [2]: reduces apomorphine-induced stereotypies; effect on dopamine concentration in rat brain [3]: reducing dopamine concentration in rat brain; effect on haloperidol-induced catalepsy [4]: increases haloperidol-induced catalepsy
3 | CCCc1nc(C)c2n1-c1nc(OC)ccc1NC2 [Example 91a, 8-methoxy-3-methyl-1-propyl-4,5-dihydro-imidazo[1,5-a]pyrido[3,2-e]pyrazine] | – | 159 | 108 | – | – | dose that significantly reduced MK-801-induced hyperactivity (MK-801-induced psychosis; i.p.): ≥ 15 mg/kg; dose that significantly reduced MK-801-induced stereotyped sniffing (MK-801-induced psychosis; i.p.): ≥ 15 mg/kg; melting point: 157 to 160 °C
4 | CCCc1nc(C)c2n1-c1nc(OC)ccc1N(C(C)=O)C2 [Example 95a, 5-acetyl-8-methoxy-3-methyl-1-propyl-4,5-dihydro-imidazo[1,5-a]pyrido[3,2-e]pyrazine] | – | 335 | 222 | 30 | 30 | –

Second part, led by results:

Row | IC50 [1] [nM] | IC50 (PDE10 from rat striatum) [nM] | IC50 (PDE10 from pig striatum) [nM] | Compound | dose that significantly reversed MK-801-induced stereotyped sniffing (MK-801-induced psychosis) [mg/kg] | dose that significantly reversed MK-801-induced hyperactivity (MK-801-induced psychosis) [mg/kg] | other results
5 | 11 | 11 | 5 | 8-methoxy-3-methyl-4-methylsulfonylamino-1-propyl-imidazo[1,5-a]pyrido[3,2-e]pyrazine [Example 69a] | – | – | –
6 | 15 | – | 6 | 3,4-dimethyl-8-methoxy-1-phenyl-imidazo[1,5-a]pyrido[3,2-e]pyrazine [Example 47a] | – | – | –
7 | 4 | – | 2 | 3,4-dimethyl-8-(2-propyl-4-methyl-imidazol-1-yl)-methoxy-1-propyl-imidazo[1,5-a]pyrido[3,2-e]pyrazine [Example 58a] | – | – | –
8 | 26 | 35 | 6 | 8-methoxy-4-methoxycarbonylamino-3-methyl-1-propyl-imidazo[1,5-a]pyrido[3,2-e]pyrazine [Example 62a] | 5 | 5 | –
9 | 51 | – | 20 | 4-cyano-8-methoxy-3-methyl-1-ethyl-imidazo[1,5-a]pyrido[3,2-e]pyrazine [Example 30a] | ≥ 10 | ≥ 10 | –
